According to patent US20240293364A1, “BIOMARKERS FOR CANCER THERAPY USING MDM2 ANTAGONISTS” (OTSUKA PHARMACEUTICAL CO., LTD., priority 2021, published 2024):

Columns and labels:
[1] = tested on: DDR signalling pathway; assay: Western blotting of DDR signalling in ATM mutant cell lines; assay type: cell-based; conditions: ATM mutant cell lines (FIG. 2E)
Method: The cell lysates were then analysed by Western blotting. […] After washing, blots were incubated for 1 hour with infrared dye labelled anti-rabbit IR800 or anti-goat IR800 secondary antibodies at a dilution of 1: 10,000 in Odyssey blocking buffer (LiCor Biosciences, Lincoln, USA).

[2] = tested on: ATM mutant cell lines LNCap and HepG2; assay: Apoptosis assays (Annexin V-FITC/PI flow cytometry); assay type: cell-based; conditions: LNCap prostate and HepG2 liver (FIG. 2D)
Method: After 72-hour incubation of the cells with compound, cells were trypsinised, washed with PBS and immediately used for flow cytometry analysis.
The samples were stained with eBioscience™ Annexin V-FITC Apoptosis Detection Kit (#BMS500FI-100, Thermo Fisher Scientific, Waltham, MA, USA) according to manufacturer's recommendations. Briefly, the samples were washed in PBS and resuspended in 200 μl of 1× binding buffer containing 5 μl of Annexin V-FITC for 10 min at room temperature. Following the incubation, samples were washed with 1× binding buffer and resuspended in 200 μl 1× binding buffer and 10 μl of the 20 μg/ml PI.
The stained samples were then immediately analysed by flow cytometry on Guava easyCyte HT cytometer (Merck-Millipore). The cell populations were separated into three groups: live cells showing only a low level of fluorescence (Annexin V-/PI-), apoptotic cells showing green fluorescence (Annexin V+/PI−) and dead cells showing both red and green fluorescence (Annexin V+/PI+). Data analyses were performed using Microsoft excel and results plotted on Prism version 7 (GraphPad Software, California, USA).

[3] = tested on: ATM mutant cell lines (HCC1500, LNCap, HT-144, HepG2); assay: Proliferation assays on cancer cell lines (CellTiter-Glo), ATM mutant cell lines; assay type: cell-based; conditions: four ATMmut cell lines: HCC1500 breast, LNCap prostate, HT-144 melanoma, HepG2 liver (FIG. 2C)
Method: (§1) Cancer cells were cultured in appropriate medium. […] Each cell line was tested in triplicates.

[4] = tested on: xenograft model of MSI-H colorectal cancer (HCT-116); assay: In vivo efficacy, HCT116 xenograft; parameters: species or system BALB/c nude mice; conditions: HCT-116 xenograft, 50 mg/kg daily (FIG. 4D)
Method: 5×10^6 HCT116 cells (in 100 μl of PBS) were injected subcutaneously into the right hind flank of groups of BALB/c nude mice. Tumours were measured externally by using a pair of digital callipers and volumes calculated as length×width^2×0.523. Before starting the study, the mice were arranged into groups of 8 according to tumour volume; mean volume should be circa 100 mm^3 with a normal range of 50 to 150 mm^3. […] Tumour volumes were measured every 2 to 3 days; animals were sacrificed when tumour volume was >1000 mm^3 or if the tumours started to show any abnormalities, such as ulceration.

[5] = tested on: patient-derived organoids (PDOs); assay: Proliferation assays on patient-derived organoids (PDOs), BRCA1/BRCA2/ATM status; assay type: cell-based
Method: Organoids were retrieved from the CrownBIO organoid bank and expanded before getting enough quantity according to standard operation procedure. One day before organoids seeding, the needed number of organoids were passaged 1:1 using 50% Matrigel and 50% corresponding culture medium. On Day 0 organoids were seeded and compound added: organoids were collected by adding 20 μl 100× Dispase solution to each well from a 6-well plate, and incubating at 37C for 30 min. After incubation, organoids were collected from all wells and pipetted through a pre-wet 100 μm filter into a 50 ml plastic tube, then filtered the flow through over a pre-wet 20 μm filter, inverted the 20 μm filter and recovered the organoids in a new 50 ml tube, Collect organoids were then resuspended in the corresponding culture media, and counted. Organoids cell suspensions were added to 384-well plate by Multidrop dispenser. 2-4 hours after organoids seeding, compounds were added by Tecan D300e, then plates were placed back into incubator for 5 days' incubation. On day 5, proliferation was assayed by CellTiter-Glo assay. […] The plate was then read (for luminescence) in an Envision plate reader.

[6] = tested on: panel of 237 cancer cell lines; assay: Cell panel screen of 237 cancer cell lines; assay type: cell-based; conditions: MSI-H colorectal cell lines
Source text: Genomic features for these cell lines such as somatic mutations, copy number alterations and hypermethylation were obtained from the list of Cancer Functional Events as mentioned in Garnett et al (2016) ANOVA method was used to identify significant associations of genomics features to drug response.

[7] = tested on: MSI-H cell lines; assay: Proliferation assays on cancer cell lines (CellTiter-Glo), MSI-H cell lines; assay type: cell-based; conditions: eight MSI-H cell lines from different indications (FIG. 4B)
Method: as §1

CC[C@@](O)(c1cc(F)c2c(c1)C(=O)N([C@H](c1ccc(Cl)cc1)[C@H](C)C(=O)O)[C@@]2(OC)c1ccc(Cl)cc1)C1CCOCC1 [Example 124, (2S,3S)-3-(4-chlorophenyl)-3-[(1R)-1-(4-chlorophenyl)-7-fluoro-5-[(1S)-1-hydroxy-1-(oxan-4-yl)propyl]-1-methoxy-3-oxo-2,3-dihydro-1H-isoindol-2-yl]-2-methylpropanoic acid]
modulation of the DDR signalling pathway (western blot) [1]: clear modulation of the DDR signalling pathway | sensitivity as measured by increased apoptosis [2]: showed sensitivity | sensitivity as measured by reduction in cell proliferation [3]: showed sensitivity | tumour growth inhibition [4]: significantly inhibits tumour growth | sensitivity as measured by reduction in cell proliferation ([5]; 4 PDOs with alterations in either ATM, BRCA1 and/or BRCA2 (FIG. 2F-G)): showed sensitivity | sensitivity as measured by reduction in cell proliferation ([5]; 4 additional PDOs with no alterations in ATM, BRCA1 and/or BRCA2): resistant | sensitivity in the cell panel data [6]: sensitive | sensitivity as measured by reduction in cell proliferation [7]: showed sensitivity
